Tested on: Rat ESCs and iPSCs
Assay: Stem cell 3D culture in h9e hydrogel
Format: cell-based
From the text: Rat PSCs: Animal use was approved by the KSU Institutional Animal Care and Use Committee (protocol #3168). Rat ESCs were derived in-house from Dark Agouti rats and characterized following the methods described in previous studies. Low passage ESCs were thawed, expanded one passage in 2D on MEF feeders, and then used in these experiments. Rat iPSCs were generated from Fischer 344 rat embryonic fibroblasts using a mouse OKSM STEMCCA lentiviral reprogramming vector according to the manufacturer's protocol (Millipore, SCR513).
3D cell culture: We adapted the techniques used previously to encapsulate breast cancer cells in 3D described in previous studies. This was done by using the regular h9e peptide hydrogel (1% wt=6 mM) in an aqueous solution. The peptide hydrogel-medium was prepared by directly mixing the aqueous h9e peptide solution with concentrated 2i plus LIF medium at 1:1 ratios for a final peptide concentration of 3 mM (600 Pa). […] Specifically, medium was made at 1.2× concentration for the 1:5 dilution, […] for the […] and 2× for the 1:1 dilution in the three h9e hydrogel concentrations. After mixing, the cells were added and the mixture was immediately added to the dish slowly to avoid air bubbles. The plates were then incubated for 30 min at 37° C. to permit gelation. To feed, 1× concentration 2i plus LIF medium was added slowly to the top of the hydrogel. To pass, the media was pipetted up and down by adding 1-2 ml of PBS more forcefully to shear the gel, and the liquefied contents were then added to a tube and diluted to a concentration that was below that which permitted gelation. The colonies were pelleted by low speed centrifugation (100×g for 5 min at room temperature), washed with calcium and magnesium free PBS, and then trypsinized to single cells by addition of trypsin EDTA for 5 min. Enzymatic reaction was terminated by dilution with PBS and 2 washing steps. The PSCs were suspended in a small volume of medium, added to the 1× hydrogel-medium solution, and re-plated at the desired concentration. Alkaline phosphatase staining, Immunofluorescence staining: Karyotyping, Embryoid body formation, Gene expression analysis were performed to determine the differentiation properties.

For “H-FLIVIGSIIGPGGDGPGGD-NH2 [h9e, FLIVIGSIIGPGGDGPGGD]”, the “serial passages maintained in the undifferentiated state (Oct4, Nanog, Sox2, SSEA-1 staining)” value (3 mM h9e hydrogel, 3D culture) was “at least 25 serial passages”, the “proliferation of encapsulated rat pluripotent stem cells” value (3 mM hydrogel) was “proliferated well” and the “alkaline phosphatase staining after more than 25 passages” value (3D culture in hydrogel) was “not affected”. For the same substance, the “spontaneous differentiation on the colony edges” value (rat ESC or rat iPSC cultures) was “never observed”.

Source: US11135163B2, “Peptide hydrogel properties and its applications” (Kansas State University Research Foundation, priority 2014, dated 2021)
